In patent publication US20220273659A1, “HETEROCYCLIC COMPOUNDS AS KINASE INHIBITORS” (NUVATION BIO INC., priority 2019, published 2022):
Like-named read-outs stand apart in the source and are kept apart here.

What was measured:
[1] = tested on: DU4475 breast carcinoma cells; test: Cancer cell proliferation assay, single agent (cell viability); format: cell-based; settings: Homo sapiens, DU-4475; Table 4; Rb negative; treatment 144 Hr with medium change at 72 Hr; Cell Titer-Glo or resazurin
Method in brief: (§1)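 Viability read by resazurin or CellTiter-Glo after 24 h treatment (BT-549) or 144 h with a 72 h medium change (MCF-7, DU4475). Compounds tested at 7–9 concentrations, e.g. 1.1 nM–10 μM, added the day after seeding; IC50 by nonlinear sigmoidal regression.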

[2] = tested on: BT-549 breast ductal carcinoma cells; test: as above; format: cell-based; settings: Homo sapiens, Table 4, Rb negative, treatment 24 Hr, Cell Titer-Glo or resazurin
Method in brief: as §1

[3] = tested on: MCF-7 breast adenocarcinoma cells; test: as above; format: cell-based; settings: Homo sapiens
Method in brief: as §1

CDK12 (cyclin K) = target: T1, CDK12 (cyclin K) (Homo sapiens, UniProt Q9NYV4); test: KinaseProfiler radiometric protein kinase assay; format: biochemical
T1 construct: purchased Eurofins Pharma Discovery (assay service)
Procedure: IC50 values of compounds against CDK12 (cyclin K) were determined by KinaseProfiler™ radiometric protein kinase assay at Eurofins Pharma Discovery (Dundee, UK). Compounds were prepared to 50× final assay concentration in 100% DMSO. This working stock of the compound was added to the assay well as the first component in each reaction. CDK12/Cyclin K was diluted in buffer (20 mM TRIS, 0.2 mM EDTA, 0.1%-mercaptoethanol, 0.01% Brij-35, 5% glycerol, mg/ml BSA) prior to addition to the reaction mix. CDK12/Cyclin K was incubated with 20 mM Tris/HCl pH 8.5, 0.2 mM EDTA, 300 μM SRSRSRSRSRSRSR, 10 mM Magnesium acetate and [γ-^33P-ATP] (specific activity and concentration as required). The reaction was initiated by the addition of the Mg/ATP mix. After incubation for 120 minutes at room temperature, the reaction was stopped by the addition of phosphoric acid to a concentration of 0.5%. 10 μl of the stopped reaction was spotted onto a P30 filtermat and washed four times for 4 minutes in 0.425% phosphoric acid and once in methanol prior to drying and scintillation counting. Results were calculated as a percentage of the mean kinase activity in positive control samples. Data were fitted in XLfit for determination of IC50 values.

[4] = tested on: Rb Ser780 phosphorylation in MCF-7 cells; test: Determination of pRb levels (Ser780 phosphorylation, ELISA); format: cell-based; settings: Homo sapiens; for inhibition at 0.01 µM: MCF7, 0.01 μM; for inhibition at 0.01 µM / inhibition at 0.1 µM / inhibition at 1 µM: 24H treatment, percentage of vehicle control; for inhibition at 0.1 µM: MCF7, 0.1 μM; for inhibition at 1 µM: MCF7, 1 μM
Procedure: Hypo-phosphorylation of the retinoblastoma protein (Rb) by cyclin D:Cdk4/6 complexes results in active Rb, which is a clinically relevant biomarker associated with CDK4 or CDK6 inhibition. As a confirmatory measure of functional activity of CDK4/6, the Ser780 phosphorylation state of Rb was assessed. MCF-7 cells were plated at 2.5×10^5 to 3.0×10^6 cells/well in 6-well cell-culture plates and incubated at 37° C. for 24H in MEM medium supplemented with 10% FBS. Cells were treated for 24H with a medium containing test compound at various concentrations (e.g., 0.01, 0.1, […]) or with DMSO (≤1%) in duplicate. After incubation period, the media was removed, and cells were rinsed once with ice-cold PBS and lysed with 0.2 mL of Cell Lysis Buffer containing 1 mM PMSF and Protease Inhibitor. Protein concentration was estimated following Bradford method. The lysis and the Rb measurements were performed following the manufacturer's ELISA kit protocols and buffers (Cell Signaling Technology, Cat. No.: 13016C). Rb inhibition of test compounds was calculated as percentage of vehicle control. In some cases, a nonlinear regression model with a sigmoidal dose response and variable slope within GraphPad Prism was used to calculate the IC50 value of Rb inhibition for individual test compounds.

CDK2 (cyclin A) = target: T2, CDK2 (cyclin A) (Homo sapiens, UniProt P24941); test: Z'-LYTE kinase assay; format: biochemical
T2 construct: purchased Invitrogen Life Technologies (assay service)
Method in brief: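 FRET-based Z′-LYTE read-out using 1.22–10.3 ng CDK2/cyclin A with Ser/Thr 12 peptide (2 μM in the 2× mix) and ATP (31 μM as the 4× solution), in HEPES pH 7.5, MgCl2, EGTA and BRIJ-35, for 60 min at room temperature. After 1 h of development, the 445/520 nm emission was read, and percent inhibition was fitted to a four-parameter logistic curve for IC50.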

CDK1 (cyclin B) = target: T3, CDK1 (cyclin B) (Homo sapiens, UniProt P06493); test: Z'-LYTE kinase assay; format: biochemical
T3 construct: purchased Invitrogen Life Technologies (assay service)
Procedure: The plates were shaken for 30 seconds, and incubated for 60 minutes at room temperature. […] The plates were read on fluorescence plate reader with Dual emission at 445 nm and 520 nm.
The following equations were used for Z′-LYTE™ Screening Assay Data Analysis.

[5] = MCF7, Table 4, Rb positive, treatment 144 Hr with medium change at 72 Hr, Cell Titer-Glo or resazurin
[6] = MCF7, Table 5, parental, non-resistant cell line compared with MCF-7-PR

T3 sequence (P06493 whole entry): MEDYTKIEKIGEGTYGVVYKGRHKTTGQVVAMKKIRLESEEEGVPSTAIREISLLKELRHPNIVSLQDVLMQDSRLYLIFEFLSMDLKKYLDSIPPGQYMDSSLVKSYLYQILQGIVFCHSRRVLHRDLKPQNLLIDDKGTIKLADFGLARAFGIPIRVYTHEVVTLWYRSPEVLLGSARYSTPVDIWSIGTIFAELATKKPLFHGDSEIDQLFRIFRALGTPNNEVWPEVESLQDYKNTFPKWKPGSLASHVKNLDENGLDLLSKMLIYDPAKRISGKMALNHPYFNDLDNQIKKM
T3 sequence (P14635 whole entry partner): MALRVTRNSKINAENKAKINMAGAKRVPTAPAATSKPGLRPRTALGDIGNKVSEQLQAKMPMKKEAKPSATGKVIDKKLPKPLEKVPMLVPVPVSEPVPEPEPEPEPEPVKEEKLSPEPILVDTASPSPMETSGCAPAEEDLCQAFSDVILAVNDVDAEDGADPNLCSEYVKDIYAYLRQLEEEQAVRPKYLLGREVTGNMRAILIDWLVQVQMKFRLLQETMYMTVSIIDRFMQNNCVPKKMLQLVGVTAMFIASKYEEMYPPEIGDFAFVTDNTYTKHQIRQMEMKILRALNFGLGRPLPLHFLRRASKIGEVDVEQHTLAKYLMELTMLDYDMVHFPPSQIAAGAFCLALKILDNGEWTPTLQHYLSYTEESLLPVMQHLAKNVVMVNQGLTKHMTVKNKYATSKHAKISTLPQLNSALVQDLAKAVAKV
T1 sequence (Q9NYV4 whole entry): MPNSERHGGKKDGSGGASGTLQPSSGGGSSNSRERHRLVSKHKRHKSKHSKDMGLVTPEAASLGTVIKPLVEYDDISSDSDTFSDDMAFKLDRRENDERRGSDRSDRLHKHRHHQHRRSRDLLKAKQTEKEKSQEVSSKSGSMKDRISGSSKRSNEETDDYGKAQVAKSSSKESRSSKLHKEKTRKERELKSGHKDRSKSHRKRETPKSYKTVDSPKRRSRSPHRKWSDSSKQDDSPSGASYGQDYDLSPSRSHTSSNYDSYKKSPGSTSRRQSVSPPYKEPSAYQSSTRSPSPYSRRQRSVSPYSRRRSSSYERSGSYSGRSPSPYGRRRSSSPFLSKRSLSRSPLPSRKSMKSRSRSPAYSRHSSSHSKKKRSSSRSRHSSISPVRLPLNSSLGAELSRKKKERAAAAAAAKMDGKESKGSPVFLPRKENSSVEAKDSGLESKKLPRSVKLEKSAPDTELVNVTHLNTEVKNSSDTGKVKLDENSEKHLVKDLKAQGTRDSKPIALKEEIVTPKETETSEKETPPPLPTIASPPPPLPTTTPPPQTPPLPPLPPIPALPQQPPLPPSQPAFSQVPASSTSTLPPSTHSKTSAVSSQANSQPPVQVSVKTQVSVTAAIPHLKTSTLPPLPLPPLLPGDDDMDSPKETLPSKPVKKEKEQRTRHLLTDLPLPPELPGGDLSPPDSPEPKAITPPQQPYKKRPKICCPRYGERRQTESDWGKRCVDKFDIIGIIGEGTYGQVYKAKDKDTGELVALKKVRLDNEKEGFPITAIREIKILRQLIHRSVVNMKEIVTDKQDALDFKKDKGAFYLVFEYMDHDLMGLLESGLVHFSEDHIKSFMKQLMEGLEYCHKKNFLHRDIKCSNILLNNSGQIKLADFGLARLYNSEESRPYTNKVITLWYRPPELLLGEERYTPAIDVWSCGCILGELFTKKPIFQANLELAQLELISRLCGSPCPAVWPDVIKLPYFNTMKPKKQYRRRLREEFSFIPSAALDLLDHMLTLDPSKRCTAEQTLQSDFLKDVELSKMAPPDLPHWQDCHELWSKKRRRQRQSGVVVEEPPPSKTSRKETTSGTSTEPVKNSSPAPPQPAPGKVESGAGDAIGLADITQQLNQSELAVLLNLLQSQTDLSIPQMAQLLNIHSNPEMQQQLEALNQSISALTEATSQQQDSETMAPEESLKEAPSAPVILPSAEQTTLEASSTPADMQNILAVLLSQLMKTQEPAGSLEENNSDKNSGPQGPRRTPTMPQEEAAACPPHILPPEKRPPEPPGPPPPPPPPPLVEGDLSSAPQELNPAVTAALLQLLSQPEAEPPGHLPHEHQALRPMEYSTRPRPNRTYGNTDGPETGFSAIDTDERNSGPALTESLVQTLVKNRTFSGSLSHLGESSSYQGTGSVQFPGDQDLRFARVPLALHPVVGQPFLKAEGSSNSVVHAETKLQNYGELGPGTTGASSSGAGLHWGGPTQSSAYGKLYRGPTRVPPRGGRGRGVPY
T1 sequence (O75909 whole entry partner): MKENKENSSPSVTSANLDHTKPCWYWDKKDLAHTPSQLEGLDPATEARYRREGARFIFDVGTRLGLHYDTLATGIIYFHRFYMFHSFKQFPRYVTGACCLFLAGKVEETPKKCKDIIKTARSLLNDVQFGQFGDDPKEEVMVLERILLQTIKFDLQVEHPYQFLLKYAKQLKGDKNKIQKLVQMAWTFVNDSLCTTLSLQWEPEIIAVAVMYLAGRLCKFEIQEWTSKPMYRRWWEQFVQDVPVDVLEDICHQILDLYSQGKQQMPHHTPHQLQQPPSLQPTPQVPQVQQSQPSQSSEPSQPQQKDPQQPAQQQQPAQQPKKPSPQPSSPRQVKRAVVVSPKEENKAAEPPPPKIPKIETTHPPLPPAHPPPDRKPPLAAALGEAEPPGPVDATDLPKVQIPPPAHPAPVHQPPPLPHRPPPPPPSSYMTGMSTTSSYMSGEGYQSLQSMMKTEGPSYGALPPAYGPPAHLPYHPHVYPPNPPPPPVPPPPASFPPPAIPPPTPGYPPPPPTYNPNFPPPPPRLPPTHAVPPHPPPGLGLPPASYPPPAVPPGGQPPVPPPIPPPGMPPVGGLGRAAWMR

SMILES	IC50 [1]	IC50 [2]	IC50 [3, 5]	IC50 (CDK12 (cyclin K))	IC50 (CDK2 (cyclin A))	IC50 (CDK1 (cyclin B); read-out: CDK1/B IC50)	IC50 ([4]; MCF7, 24H treatment, read-out: Inhibition of Rb phosphorylation IC50)	IC50 (CDK1 (cyclin B))	IC50 [3, 6]	inhibition at 0.01 µM [4]	inhibition at 0.1 µM [4]	inhibition at 1 µM [4]
N#Cc1cc2cnc(Nc3ccc4c(c3)CCNC4)nc2n(C2CCCC2)c1=O [Compound No. 31, 8-cyclopentyl-7-oxo-2-((1,2,3,4-tetrahydroisoquinolin-6-yl)amino)-7,8-dihydropyrido[2,3-d]pyrimidine-6-carbonitrile]	525 nM	1110 nM	130 nM	> 10000 nM	32 nM	481 nM	–	–	157 nM	1%	27%	95%
N#Cc1cc2cnc(Nc3ccc4c(c3)CCNC4)nc2n(C2CC3CC3C2)c1=O (centres unmarked) [Compound No. 342, 8-(bicyclo[3.1.0]hexan-3-yl)-7-oxo-2-((1,2,3,4-tetrahydroisoquinolin-6-yl)amino)-7,8-dihydropyrido[2,3-d]pyrimidine-6-carbonitrile]	485 nM	–	415 nM	–	41 nM	439 nM	–	–	192 nM	–	–	–
N#Cc1cc2cnc(Nc3ccc4c(c3)CNCC4)nc2n(C2CCCC2)c1=O [Compound No. 29, 8-cyclopentyl-7-oxo-2-((1,2,3,4-tetrahydroisoquinolin-7-yl)amino)-7,8-dihydropyrido[2,3-d]pyrimidine-6-carbonitrile]	1280 nM	–	240 nM	–	42 nM	441 nM	–	–	–	12%	27%	44%
CS(=O)(=O)N1CCC(Nc2ncc3cc(C#N)c(=O)n(C4CCCC4)c3n2)CC1 [Compound No. 93, 8-cyclopentyl-2-((1-(methylsulfonyl)piperidin-4-yl)amino)-7-oxo-7,8-dihydropyrido[2,3-d]pyrimidine-6-carbonitrile]	793 nM	–	2000 nM	–	2.5 nM	–	< 123 nM	53 nM	558 nM	–	–	–

Continued by falling IC50 [3, 5], values first:

IC50 [1]	IC50 [2]	IC50 [3, 5]	IC50 (CDK12 (cyclin K))	IC50 (CDK2 (cyclin A))	IC50 (CDK1 (cyclin B); read-out: CDK1/B IC50)	IC50 ([4]; MCF7, 24H treatment, read-out: Inhibition of Rb phosphorylation IC50)	IC50 (CDK1 (cyclin B))	SMILES	IC50 [3, 6]	inhibition at 0.01 µM [4]	inhibition at 0.1 µM [4]	inhibition at 1 µM [4]
3690 nM	–	3140 nM	–	30 nM	–	–	1110 nM	CS(=O)(=O)N1CCC(Nc2ncc3cc(C#N)c(=O)n(C4CCC(F)(F)C4)c3n2)CC1 (racemic) [Compound No. 345, 8-(3,3-difluorocyclopentyl)-2-((1-(methylsulfonyl)piperidin-4-yl)amino)-7-oxo-7,8-dihydropyrido[2,3-d]pyrimidine-6-carbonitrile]	3970 nM	–	–	–
940 nM	–	835 nM	–	7 nM	197 nM	–	–	CS(=O)(=O)N1CCC(Nc2ncc3cc(C#N)c(=O)n(C4CC5CC5C4)c3n2)CC1 (centres unmarked) [Compound No. 341, 8-(bicyclo[3.1.0]hexan-3-yl)-2-((1-(methylsulfonyl)piperidin-4-yl)amino)-7-oxo-7,8-dihydropyrido[2,3-d]pyrimidine-6-carbonitrile]	487 nM	–	–	–
–	1400 nM	158 nM	–	–	–	–	–	N#Cc1cc2cnc(Nc3ccc(N4CCNCC4)c(F)c3)nc2n(C2CCCC2)c1=O [Compound No. 13, 8-cyclopentyl-2-((3-fluoro-4-(piperazin-1-yl)phenyl)amino)-7-oxo-7,8-dihydropyrido[2,3-d]pyrimidine-6-carbonitrile]	119 nM	35%	58%	93%
